Measurements reported in the supplement of paper PMC10307832.

Key:
Test in all cases: relative viability (nuclei count vs DMSO), 5 days (fraction); higher = more cells survive
[1] = compound: CC1=C(C(=NN1)C)CC2=C(C3=C(S2)N(C(=O)N(C3=O)C)CC(C)C)C(=O)N4C[C@@H](CO4)O + CS(=O)(=O)N1CCN(Cc2cc3nc(-c4cccc5[nH]ncc45)nc(N4CCOCC4)c3s2)CC1 [Pictilisib] (partner 1 µM)
How it was run: (§1)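 Lung cancer cell lines were pin-tool dosed in 1536-well plates on the day after seeding, with either a lone drug or a fixed anchor-drug dose plus five library-drug doses (not always all listed) in √10 steps. Nuclei were counted on 4× images after 5 days. Relative viability is the ratio of treated-well to vehicle-well nuclei counts, with each value a median of duplicate plates.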

[2] = compound: CC1=C(C(=NN1)C)CC2=C(C3=C(S2)N(C(=O)N(C3=O)C)CC(C)C)C(=O)N4C[C@@H](CO4)O + Nc1ncn([C@H]2C[C@H](O)[C@@H](CO)O2)c(=O)n1 [Decitabine] (partner 2 µM)
How it was run: as §1

IDH-C35 + Trametinib = compound: Cc1ccccc1C(C(=O)NC1CCCCC1)N(C(=O)Cn1ccnc1C)c1cccc(F)c1 [IDH-C35] + CC(=O)Nc1cccc(-n2c(=O)n(C3CC3)c(=O)c3c(Nc4ccc(I)cc4F)n(C)c(=O)c(C)c32)c1 [Trametinib] (partner 0.02 µM)
How it was run: as §1

IDH-C35 + Crizotinib = compound: Cc1ccccc1C(C(=O)NC1CCCCC1)N(C(=O)Cn1ccnc1C)c1cccc(F)c1 [IDH-C35] + C[C@@H](Oc1cc(-c2cnn(C3CCNCC3)c2)cnc1N)c1c(Cl)ccc(F)c1Cl [Crizotinib] (partner 1 µM)
How it was run: as §1

UMC-11
relative viability ([1]; first compound 0.0025 µM): 0.917 | relative viability ([1]; first compound 0.007906 µM): 0.673 | relative viability ([1]; first compound 0.025 µM): 0.785 | relative viability ([1]; first compound 0.07906 µM): 0.921 | relative viability ([1]; first compound 0.25 µM): 0.907 | relative viability ([2]; first compound 0.0025 µM): 0.54 | relative viability ([2]; first compound 0.007906 µM): 0.506 | relative viability ([2]; first compound 0.025 µM): 0.38 | relative viability ([2]; first compound 0.07906 µM): 0.483 | relative viability ([2]; first compound 0.25 µM): 0.491 | relative viability (IDH-C35 + Trametinib; first compound 0.08 µM): 0.738 | relative viability (IDH-C35 + Trametinib; first compound 0.253 µM): 0.761 | relative viability (IDH-C35 + Trametinib; first compound 0.8 µM): 0.617 | relative viability (IDH-C35 + Trametinib; first compound 2.53 µM): 0.685 | relative viability (IDH-C35 + Trametinib; first compound 8 µM): 0.772 | relative viability (IDH-C35 + Crizotinib; first compound 0.08 µM): 0.578 | relative viability (IDH-C35 + Crizotinib; first compound 0.253 µM): 0.56 | relative viability (IDH-C35 + Crizotinib; first compound 0.8 µM): 0.481 | relative viability (IDH-C35 + Crizotinib; first compound 2.53 µM): 0.576 | relative viability (IDH-C35 + Crizotinib; first compound 8 µM): 0.629
